Measured values: ChEMBL document CHEMBL1128418, “Synthesis and activity against multidrug resistance in Chinese hamster ovary cells of new acridone-4-carboxamides” (J Med Chem, 1995)

These molecules were tested on CHRC5 cell line (assay: Reversal of sensitivity of multidrug resistant chinese hamster ovary cell line CHRC/5 expressed as concentration that restores 50% of cytotoxic activity of 5 ug/mL toward doxorubicin; Toxic alone to cells at 5 uM). Settings: not given; call rule not given here.
Assay type: functional, cell-based, Cricetulus griseus
With COc1ccc(CCN(C)CCOc2ccc(NC(=O)c3cccc4cc5ccccc5nc34)cc2)cc1OC the EC50 was “Toxic”.

These molecules were tested on CHRC5 cell line (assay: Reversal of sensitivity of multidrug resistant chinese hamster ovary cell line CHRC/5 expressed as concentration that restores 50% of cytotoxic activity of 5 ug/mL toward doxorubicin; Not active). Settings: not given.
Assay type: functional, cell-based, Cricetulus griseus
With COc1ccc(CCN(C)CCCN2CCN(C(=O)c3cccc4c(O)c5ccccc5nc34)CC2)cc1OC the EC50 was “Not Active”. With CCN(CC)CCOc1ccc(NC(=O)c2cccc3c(=O)c4ccccc4[nH]c23)cc1 the EC50 was “Not Active”. For COc1ccc(CCN(C)CCCN2CCC(NC(=O)c3cccc4c(=O)c5ccccc5[nH]c34)CC2)cc1OC, the EC50 was “Not Active”.

These molecules were tested on CHRC5 cell line (assay: Reversal of sensitivity of multidrug resistant chinese hamster ovary cell line CHRC/5 expressed as concentration that restores 50% of cytotoxic activity of 5 ug/mL toward doxorubicin). Settings: Cricetulus griseus.
Assay type: functional, cell-based
COc1ccc(CCN(C)CCCC(C#N)(c2ccc(OC)c(OC)c2)C(C)C)cc1OC (stereo not given) gave an EC50 of 3000 nM.

Same assay, conditions: Cricetulus griseus, read-out: EC50
COc1ccc(CN(C)CCCc2ccc(NC(=O)c3cccc4c(O)c5ccccc5nc34)cc2)cc1OC gave an EC50 of 60 nM. In the case of COc1ccc(CN(C)CCc2ccc(NC(=O)c3cccc4c(O)c5cccc(OC)c5nc34)cc2)cc1OC, the EC50 is reported as 21 nM. COc1ccc(CCN(C)CCOc2ccc(NC(=O)c3cccc4c(=O)c5ccccc5oc34)cc2)cc1OC was tested, and the EC50 was 180 nM. COc1ccc(CCN(C)CCOc2ccc(NC(=O)c3cccn4c(=O)c5ccccc5nc34)cc2)cc1OC gave an EC50 of 210 nM. In the case of COc1ccc(CN(C)CCc2ccc(NC(=O)c3cccc4c(O)c5ccccc5nc34)cc2)cc1OC, the EC50 is reported as 27 nM. For COc1ccc(CN(C)CCc2ccc(NC(=O)c3cccc4c(O)c5cccc([N+](=O)[O-])c5nc34)cc2)cc1OC, the EC50 was 195 nM. COc1ccc(CN(C)CCc2ccc(NC(=O)c3cccc4c(O)c5cccc(F)c5nc34)c(C)c2)cc1OC gave an EC50 of 88 nM. COc1cc2c(cc1OC)CN(CCc1ccccc1NC(=O)c1cccc3c(O)c4cccc(OC)c4nc13)CC2 gave an EC50 of 305 nM. Molecule CSc1ccc(CN(C)CCOc2ccc(NC(=O)c3cccc4c(O)c5ccccc5nc34)cc2)cc1 has an EC50 of 690 nM. Molecule COc1ccc(CN(C)CCOc2ccc(NC(=O)c3cccc4c(O)c5cccc(OC)c5nc34)c(C)c2)cc1OC has an EC50 of 280 nM. COc1ccc(CN(C)C/C=C/c2ccc(NC(=O)c3cccc4c(O)c5ccccc5nc34)cc2)cc1OC showed an EC50 of 270 nM. In the case of COc1ccc(CN(C)CCCc2cccc(NC(=O)c3cccc4c(O)c5cccc(OC)c5nc34)c2)cc1OC, the EC50 is reported as 45 nM. With COc1ccc(CCN(C)CCOc2ccc(NC(=O)c3cccc4c(=O)c5ccccc5sc34)cc2)cc1OC the EC50 was 90 nM. For CCN(CCOc1ccc(NC(=O)c2cccc3c(=O)c4ccccc4[nH]c23)cc1)Cc1ccccc1, the EC50 was 110 nM. COc1ccc(CCN(C)CCOc2ccc(NC(=O)c3cccc4c3Oc3ccccc3O4)cc2)cc1OC was tested, and the EC50 was 460 nM. In the case of O=C(Nc1ccc(OCCCN2CCc3ccccc3C2)cc1)c1cccc2c(=O)c3ccccc3[nH]c12, the EC50 is reported as 210 nM. With CN(CCOc1ccc(NC(=O)c2cccc3c(=O)c4ccccc4[nH]c23)cc1)Cc1ccc(F)cc1 the EC50 was 930 nM. For COc1ccc(CCN(C)CCOc2ccc(NC(=O)c3cccc4c3C(=O)c3ccccc3C4=O)cc2)cc1OC, the EC50 was 1500 nM. CN(CCOc1ccc(NC(=O)c2cccc3c(=O)c4ccccc4[nH]c23)cc1)Cc1ccc2c(c1)OCO2 was tested, and the EC50 was 550 nM. With COc1ccc(CN(C)CCOc2ccc(NC(=O)c3cccc4c(=O)c5ccccc5[nH]c34)cc2)cc1 the EC50 was 650 nM. COc1ccc(CCN(C)CCOc2ccc(NC(=O)c3cccc4c3Nc3ccccc3S4)cc2)cc1OC showed an EC50 of 180 nM. For CN(CCOc1ccc(NC(=O)c2cccc3c(=O)c4ccccc4[nH]c23)cc1)Cc1ccccc1, the EC50 was 720 nM. Cc1ccc(CN(C)CCOc2ccc(NC(=O)c3cccc4c(=O)c5ccccc5[nH]c34)cc2)cc1 was tested, and the EC50 was 240 nM. With COc1ccccc1CN(C)CCOc1ccc(NC(=O)c2cccc3c(=O)c4ccccc4[nH]c23)cc1 the EC50 was 510 nM. COc1ccc(CNCCCOc2ccc(NC(=O)c3cccc4c(=O)c5ccccc5[nH]c34)cc2)cc1OC showed an EC50 of 525 nM. Molecule COc1cc2c(cc1OC)CN(CCCOc1ccc(NC(=O)c3cccc4c(=O)c5ccccc5[nH]c34)cc1)CC2 has an EC50 of 50 nM. For CN(CCOc1ccc(NC(=O)c2cccc3c(=O)c4ccccc4[nH]c23)cc1)Cc1ccc(C(F)(F)F)cc1, the EC50 was 800 nM. With COc1cc2c(cc1OC)CN(CCc1ccc(NC(=O)c3cccc4c(=O)c5cccc(OC)c5[nH]c34)cc1)CC2 the EC50 was 21 nM. Molecule COc1ccc(CN(C)Cc2ccc(NC(=O)c3cccc4c(O)c5ccccc5nc34)cc2)cc1OC has an EC50 of 370 nM. Molecule COc1ccc(CN(C)CCOc2ccc(NC(=O)c3cccc4c(=O)cc(-c5ccccc5)[nH]c34)cc2)cc1OC has an EC50 of 330 nM. For COc1ccc(CCN(C)CCOc2ccc(NC(=O)c3cccc4c(Cl)c5ccccc5nc34)cc2)cc1OC, the EC50 was 660 nM. In the case of COc1ccc(CCN(C)CCCOc2ccc(NC(=O)c3cccc4c(=O)c5ccccc5[nH]c34)cc2)cc1OC, the EC50 is reported as 90 nM. Work on COc1ccc(CN(C)CCc2ccccc2NC(=O)c2cccc3c(O)c4cccc(OC)c4nc23)cc1OC yielded an EC50 of 465 nM. COc1cc2c(cc1OC)CN(CCCc1cccc(NC(=O)c3cccc4c(O)c5cccc(OC)c5nc34)c1)CC2 gave an EC50 of 48 nM. Molecule COc1cc2c(cc1OC)CN(CCc1cccc(NC(=O)c3cccc4c(O)c5cccc(OC)c5nc34)c1)CC2 has an EC50 of 155 nM. COc1ccc(CN(C)CCc2ccc(NC(=O)c3cccc4c(O)c5cccc(C)c5nc34)cc2)cc1OC gave an EC50 of 21 nM. COc1ccc(CN(C)CCCOc2ccc(NC(=O)c3cccc4c(O)c5cccc(F)c5nc34)c(C)c2)cc1OC showed an EC50 of 63 nM. With COc1ccc(CN(C)CCCSc2ccc(NC(=O)c3cccc4c(O)c5ccccc5nc34)cc2)cc1OC the EC50 was 45 nM. COc1ccc(CN(C)CCc2ccc(NC(=O)c3cccc4c(O)c5cccc(F)c5nc34)cc2)cc1OC showed an EC50 of 18 nM. Molecule COc1ccc(CN(C)C/C=C/Cc2ccc(NC(=O)c3cccc4c(O)c5ccccc5nc34)cc2)cc1OC has an EC50 of 150 nM. With COc1ccc(CN(C)CCCCc2ccc(NC(=O)c3cccc4c(O)c5cccc(N)c5nc34)cc2)cc1OC the EC50 was 177 nM. With CN(CCCCCCCCNC(=O)c1cccc2c(O)c3ccccc3nc12)Cc1ccccc1 the EC50 was 1100 nM. In the case of COc1ccc(CN(C)CCOc2ccc(NC(=O)c3cccc4nc5ccccc5nc34)cc2)cc1OC, the EC50 is reported as 330 nM. COc1cc(CCN(C)Cc2ccc(OC)c(OC)c2)ccc1NC(=O)c1cccc2c(O)c3cccc(F)c3nc12 gave an EC50 of 21 nM. In the case of COc1ccc(CN(C)CCOc2ccc(NC(=O)c3cccc4c(O)c5ccccc5nc34)cc2)cc1OC, the EC50 is reported as 90 nM. Molecule COc1ccc(CN(C)CCCCc2ccc(NC(=O)c3cccc4c(O)c5ccccc5nc34)cc2)cc1OC has an EC50 of 30 nM. With COc1cc(CCCN(C)Cc2ccc(OC)c(OC)c2)ccc1NC(=O)c1cccc2c(O)c3cccc(OC)c3nc12 the EC50 was 37 nM. In the case of COc1ccc(CN(C)CCCOc2ccc(NC(=O)c3cccc4c(O)c5ccccc5nc34)cc2)cc1OC, the EC50 is reported as 36 nM. Work on COc1cc(OC)c2nc3c(C(=O)Nc4ccc(CCN(C)Cc5ccc(OC)c(OC)c5)cc4)cccc3c(O)c2c1 yielded an EC50 of 22 nM. With COc1cc(OCCCN(C)Cc2ccc(OC)c(OC)c2)ccc1NC(=O)c1cccc2c(O)c3cccc(F)c3nc12 the EC50 was 30 nM. Work on COc1cc(OCCCN(C)Cc2ccc(OC)c(OC)c2)ccc1NC(=O)c1cccc2c(O)c3cccc(C)c3nc12 yielded an EC50 of 40 nM. CCc1cc(OCCCN(C)Cc2ccc(OC)c(OC)c2)ccc1NC(=O)c1cccc2c(O)c3cccc(F)c3nc12 gave an EC50 of 90 nM. COc1ccc(CN(C)CCCc2ccccc2NC(=O)c2cccc3c(O)c4cccc(OC)c4nc23)cc1OC gave an EC50 of 585 nM. COc1cc(CCCN(C)Cc2ccc(OC)c(OC)c2)ccc1NC(=O)c1cccc2c(O)c3cccc(F)c3nc12 gave an EC50 of 43 nM. With COc1ccc(CN(C)CCc2ccc(NC(=O)c3cccc4c(O)c5cccc(C)c5nc34)c(C)c2)cc1OC the EC50 was 80 nM. Molecule COc1ccc(CN(C)CCCOc2ccc(NC(=O)c3cccc4c(O)c5cccc(C)c5nc34)c(C)c2)cc1OC has an EC50 of 93 nM. COc1ccc(CN(C)CCc2ccc(NC(=O)c3cccc4c(=O)c5ccccc5n(C)c34)cc2)cc1OC was tested, and the EC50 was 210 nM. Molecule COc1ccc(CN(C)CCCCCc2ccc(NC(=O)c3cccc4c(O)c5ccccc5nc34)cc2)cc1OC has an EC50 of 150 nM. With COc1cc2c(cc1OC)CN(CCc1ccc(NC(=O)c3cccc4c(O)c5cccc(F)c5nc34)cc1)CC2 the EC50 was 33 nM. For COc1ccc2nc3c(C(=O)Nc4ccc(CCCCN(C)Cc5ccc(OC)c(OC)c5)cc4)cccc3c(O)c2c1, the EC50 was 120 nM.
